Targets include Histamine H3 receptor (Homo sapiens, UniProt Q9Y5N1); Histamine H1 receptor (Homo sapiens, UniProt P35367); Motilin receptor (Homo sapiens, UniProt O43193).
For assay [1], the target named is T1, Alpha-2C adrenergic receptor (Homo sapiens, UniProt P18825).
T1 sequence (P18825 whole entry): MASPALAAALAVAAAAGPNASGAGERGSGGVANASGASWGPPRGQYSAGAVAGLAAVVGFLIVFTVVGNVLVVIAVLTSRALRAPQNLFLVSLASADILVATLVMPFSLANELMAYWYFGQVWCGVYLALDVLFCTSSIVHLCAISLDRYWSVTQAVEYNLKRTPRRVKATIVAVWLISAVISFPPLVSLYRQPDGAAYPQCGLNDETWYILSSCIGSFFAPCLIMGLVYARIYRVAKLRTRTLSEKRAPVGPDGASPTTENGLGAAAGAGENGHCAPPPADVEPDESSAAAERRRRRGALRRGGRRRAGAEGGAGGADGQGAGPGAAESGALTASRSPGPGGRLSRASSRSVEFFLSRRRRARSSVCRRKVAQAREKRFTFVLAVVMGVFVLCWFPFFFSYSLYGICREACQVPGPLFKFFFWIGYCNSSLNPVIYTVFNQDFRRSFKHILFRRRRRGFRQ
The assay is classed as functional.

Assay [2] has as its target T2, Alpha-2B adrenergic receptor (Homo sapiens, UniProt P18089).
T2 sequence (P18089 whole entry): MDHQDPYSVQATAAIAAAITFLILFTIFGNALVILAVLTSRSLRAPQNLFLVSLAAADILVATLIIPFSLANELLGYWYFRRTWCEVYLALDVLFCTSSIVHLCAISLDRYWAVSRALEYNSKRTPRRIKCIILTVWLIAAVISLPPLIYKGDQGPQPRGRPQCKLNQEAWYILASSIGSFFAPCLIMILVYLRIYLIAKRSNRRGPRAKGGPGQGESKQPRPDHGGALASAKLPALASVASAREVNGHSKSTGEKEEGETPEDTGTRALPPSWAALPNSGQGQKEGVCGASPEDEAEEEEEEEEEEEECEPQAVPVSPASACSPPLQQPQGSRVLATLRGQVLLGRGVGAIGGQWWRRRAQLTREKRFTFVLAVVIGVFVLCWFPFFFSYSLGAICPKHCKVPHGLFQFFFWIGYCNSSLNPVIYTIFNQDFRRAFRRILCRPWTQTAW

Assay [3] has as its target T3, Type-1 angiotensin II receptor (Homo sapiens, UniProt P30556).
T3 sequence (P30556 whole entry): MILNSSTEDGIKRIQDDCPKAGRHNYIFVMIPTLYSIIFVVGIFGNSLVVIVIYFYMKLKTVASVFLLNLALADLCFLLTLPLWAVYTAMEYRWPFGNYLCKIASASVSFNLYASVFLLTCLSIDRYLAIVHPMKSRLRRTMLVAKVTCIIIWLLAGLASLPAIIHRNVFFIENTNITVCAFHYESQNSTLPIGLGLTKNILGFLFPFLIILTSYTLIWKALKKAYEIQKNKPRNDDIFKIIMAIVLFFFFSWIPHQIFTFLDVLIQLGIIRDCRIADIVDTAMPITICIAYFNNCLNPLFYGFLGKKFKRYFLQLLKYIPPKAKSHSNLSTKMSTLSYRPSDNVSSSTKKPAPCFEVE

In assay [4] the target is cGMP-inhibited 3',5'-cyclic phosphodiesterase 3A (Homo sapiens, UniProt Q14432). The assay is classed as functional.
In assay [5] the target is 3',5'-cyclic-AMP phosphodiesterase 4D (Homo sapiens, UniProt Q08499). The assay is classed as functional.
The target in assay [6] is T4, Cholecystokinin receptor type A (Homo sapiens, UniProt P32238).
T4 sequence (P32238 whole entry): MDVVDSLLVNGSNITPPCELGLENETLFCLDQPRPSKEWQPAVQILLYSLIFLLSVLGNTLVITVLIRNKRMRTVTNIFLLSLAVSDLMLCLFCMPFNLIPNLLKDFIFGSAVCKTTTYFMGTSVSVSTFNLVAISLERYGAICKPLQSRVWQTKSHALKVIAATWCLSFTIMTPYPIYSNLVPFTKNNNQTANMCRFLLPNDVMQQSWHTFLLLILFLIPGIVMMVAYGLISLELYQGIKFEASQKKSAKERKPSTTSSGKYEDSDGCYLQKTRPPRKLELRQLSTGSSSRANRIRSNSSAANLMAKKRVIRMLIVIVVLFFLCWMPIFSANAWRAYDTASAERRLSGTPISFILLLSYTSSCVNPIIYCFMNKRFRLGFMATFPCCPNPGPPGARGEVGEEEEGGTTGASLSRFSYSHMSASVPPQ

The next assay concerns the target D(1A) dopamine receptor (Homo sapiens, UniProt P21728). The assay is classed as functional, cell-based.
Further: assay procedure not described here.

Motilin receptor, sequence (O43193 whole entry): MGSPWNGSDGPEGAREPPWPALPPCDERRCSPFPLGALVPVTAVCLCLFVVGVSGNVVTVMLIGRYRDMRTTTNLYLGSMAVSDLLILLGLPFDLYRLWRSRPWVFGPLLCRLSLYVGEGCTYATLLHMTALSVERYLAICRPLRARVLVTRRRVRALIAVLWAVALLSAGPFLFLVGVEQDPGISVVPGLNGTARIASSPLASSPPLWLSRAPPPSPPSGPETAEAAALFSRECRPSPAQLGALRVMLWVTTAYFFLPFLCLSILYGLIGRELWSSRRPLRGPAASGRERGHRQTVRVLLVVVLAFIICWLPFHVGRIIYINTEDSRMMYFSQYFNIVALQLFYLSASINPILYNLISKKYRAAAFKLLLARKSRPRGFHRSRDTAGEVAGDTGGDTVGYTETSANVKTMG
3',5'-cyclic-AMP phosphodiesterase 4D, sequence (Q08499 whole entry): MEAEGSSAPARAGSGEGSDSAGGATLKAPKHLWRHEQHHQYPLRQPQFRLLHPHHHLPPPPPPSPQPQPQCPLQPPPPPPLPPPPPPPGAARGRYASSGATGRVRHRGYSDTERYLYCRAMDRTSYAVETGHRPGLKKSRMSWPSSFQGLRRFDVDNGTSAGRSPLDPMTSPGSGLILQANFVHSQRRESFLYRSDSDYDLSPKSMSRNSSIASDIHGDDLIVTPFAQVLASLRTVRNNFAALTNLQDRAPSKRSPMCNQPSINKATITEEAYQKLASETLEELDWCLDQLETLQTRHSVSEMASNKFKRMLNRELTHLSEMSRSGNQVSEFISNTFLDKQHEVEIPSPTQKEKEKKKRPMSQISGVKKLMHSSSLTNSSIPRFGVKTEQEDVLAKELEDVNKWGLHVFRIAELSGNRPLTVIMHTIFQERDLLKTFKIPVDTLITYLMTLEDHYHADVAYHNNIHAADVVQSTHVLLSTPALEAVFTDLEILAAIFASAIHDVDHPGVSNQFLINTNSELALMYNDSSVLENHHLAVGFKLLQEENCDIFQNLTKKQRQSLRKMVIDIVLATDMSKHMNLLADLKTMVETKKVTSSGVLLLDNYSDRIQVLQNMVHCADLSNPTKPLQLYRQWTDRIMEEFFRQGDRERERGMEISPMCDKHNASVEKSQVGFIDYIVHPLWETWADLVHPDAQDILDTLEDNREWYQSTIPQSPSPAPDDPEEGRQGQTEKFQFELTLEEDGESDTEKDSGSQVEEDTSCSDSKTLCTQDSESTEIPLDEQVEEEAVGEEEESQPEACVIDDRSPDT
D(1A) dopamine receptor, sequence (P21728 whole entry): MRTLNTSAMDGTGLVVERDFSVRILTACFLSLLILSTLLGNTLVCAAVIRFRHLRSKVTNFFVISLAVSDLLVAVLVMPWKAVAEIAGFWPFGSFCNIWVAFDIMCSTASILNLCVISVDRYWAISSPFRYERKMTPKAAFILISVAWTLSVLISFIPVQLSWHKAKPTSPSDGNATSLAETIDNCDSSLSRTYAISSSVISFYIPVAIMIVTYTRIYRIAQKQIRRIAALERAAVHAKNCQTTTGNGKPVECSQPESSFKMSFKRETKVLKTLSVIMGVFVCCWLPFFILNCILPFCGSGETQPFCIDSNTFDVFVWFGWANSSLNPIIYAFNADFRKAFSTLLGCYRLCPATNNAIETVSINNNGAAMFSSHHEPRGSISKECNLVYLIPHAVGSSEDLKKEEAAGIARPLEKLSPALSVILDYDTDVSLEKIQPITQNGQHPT
Histamine H3 receptor, sequence (Q9Y5N1 whole entry): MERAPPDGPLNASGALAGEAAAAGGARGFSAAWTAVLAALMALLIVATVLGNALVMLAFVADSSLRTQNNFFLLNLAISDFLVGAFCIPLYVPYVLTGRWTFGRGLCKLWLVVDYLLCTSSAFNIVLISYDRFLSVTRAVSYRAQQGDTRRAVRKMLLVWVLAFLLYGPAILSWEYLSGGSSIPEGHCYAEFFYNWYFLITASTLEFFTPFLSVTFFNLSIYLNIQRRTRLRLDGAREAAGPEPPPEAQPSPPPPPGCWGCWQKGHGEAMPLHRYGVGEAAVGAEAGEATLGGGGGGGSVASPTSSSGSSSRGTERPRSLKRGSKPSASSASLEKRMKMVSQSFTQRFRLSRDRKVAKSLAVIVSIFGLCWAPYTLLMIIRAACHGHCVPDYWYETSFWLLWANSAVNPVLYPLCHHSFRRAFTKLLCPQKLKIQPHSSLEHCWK
Histamine H1 receptor, sequence (P35367 whole entry): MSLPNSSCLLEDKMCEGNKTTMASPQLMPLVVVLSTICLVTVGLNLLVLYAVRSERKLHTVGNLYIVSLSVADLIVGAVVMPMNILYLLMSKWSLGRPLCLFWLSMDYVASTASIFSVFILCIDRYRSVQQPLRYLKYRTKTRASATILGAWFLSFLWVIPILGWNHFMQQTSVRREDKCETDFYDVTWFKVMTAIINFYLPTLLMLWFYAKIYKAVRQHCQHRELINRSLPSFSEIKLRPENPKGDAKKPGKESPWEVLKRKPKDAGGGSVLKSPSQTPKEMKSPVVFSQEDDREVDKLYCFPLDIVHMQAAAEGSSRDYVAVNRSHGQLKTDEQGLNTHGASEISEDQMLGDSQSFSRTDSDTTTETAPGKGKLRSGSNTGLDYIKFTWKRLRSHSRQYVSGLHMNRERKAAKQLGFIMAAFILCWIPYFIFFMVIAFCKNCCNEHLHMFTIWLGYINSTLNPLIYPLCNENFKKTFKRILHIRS
cGMP-inhibited 3',5'-cyclic phosphodiesterase 3A, sequence (Q14432 whole entry): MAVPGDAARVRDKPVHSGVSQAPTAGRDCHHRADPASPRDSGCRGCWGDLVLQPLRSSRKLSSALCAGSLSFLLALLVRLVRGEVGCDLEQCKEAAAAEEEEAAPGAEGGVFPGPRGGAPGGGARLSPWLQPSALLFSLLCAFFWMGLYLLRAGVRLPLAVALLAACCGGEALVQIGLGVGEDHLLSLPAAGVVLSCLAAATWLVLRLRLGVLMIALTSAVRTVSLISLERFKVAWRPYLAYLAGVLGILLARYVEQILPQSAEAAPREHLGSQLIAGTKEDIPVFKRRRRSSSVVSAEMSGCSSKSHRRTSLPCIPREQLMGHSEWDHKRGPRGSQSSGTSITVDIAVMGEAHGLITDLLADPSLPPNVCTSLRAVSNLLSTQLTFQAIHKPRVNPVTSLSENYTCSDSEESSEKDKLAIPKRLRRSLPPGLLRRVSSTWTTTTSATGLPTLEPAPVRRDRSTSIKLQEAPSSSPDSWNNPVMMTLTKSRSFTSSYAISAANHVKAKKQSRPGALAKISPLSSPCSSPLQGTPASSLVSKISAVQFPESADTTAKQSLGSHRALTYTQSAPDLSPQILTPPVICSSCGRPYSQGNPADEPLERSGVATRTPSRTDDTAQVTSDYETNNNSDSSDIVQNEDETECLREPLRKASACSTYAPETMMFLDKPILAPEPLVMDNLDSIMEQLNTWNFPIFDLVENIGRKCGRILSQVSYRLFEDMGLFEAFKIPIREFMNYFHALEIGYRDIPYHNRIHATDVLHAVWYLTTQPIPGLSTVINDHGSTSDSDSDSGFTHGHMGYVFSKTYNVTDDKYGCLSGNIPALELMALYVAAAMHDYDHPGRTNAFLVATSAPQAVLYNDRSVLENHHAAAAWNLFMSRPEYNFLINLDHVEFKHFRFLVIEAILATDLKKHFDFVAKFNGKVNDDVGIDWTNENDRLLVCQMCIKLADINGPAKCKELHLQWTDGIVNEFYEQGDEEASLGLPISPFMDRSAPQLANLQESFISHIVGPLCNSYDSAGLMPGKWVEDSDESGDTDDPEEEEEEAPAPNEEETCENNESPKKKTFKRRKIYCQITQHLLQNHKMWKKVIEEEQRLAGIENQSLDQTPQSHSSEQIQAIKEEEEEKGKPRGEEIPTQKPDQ

Usually AC50 stands for the concentration giving half of the maximal activity seen. As to `C[C@]12CCC(=O)C=C1[C@@H]1C[C@@H]1[C@H]1[C@@H]3[C@@H]4C[C@@H]4[C@@]4(CCC(=O)O4)[C@@]3(C)CC[C@@H]12` [DROSPIRENONE], the AC50 (on Histamine H3 receptor; in assay [1]; in [2]; at Histamine H1 receptor; in [3]; on Motilin receptor) was above 30 µM throughout. Further, the AC50 (in assay [4]; in assay [5]; in [6]; on D(1A) dopamine receptor) was above 30 µM throughout.
Take `CCC(=O)c1ccc2c(c1)N(CC(C)N(C)C)c1ccccc1S2` (stereo not given) [PROPIOMAZINE]: the AC50 at Histamine H3 receptor was above 10 µM; in assay [1], 4.5 µM; in assay [2], 0.32 µM; on Histamine H1 receptor, 0.034 µM; in [3] it was above 10 µM; on Motilin receptor, above 10 µM. Moreover, the AC50 in assay [4] was above 30 µM; in [5], above 10 µM; in [6], above 10 µM; on D(1A) dopamine receptor, above 10 µM.
